In US4931429A, “α-aminoacyl β-aminoacyl aminodiols as anti-hypertensive agents” (G. D. Searle & Co., priority 1987, dated 1990) one finds IC50 data, which are given here for two compounds.

As usually defined, the IC50 is the concentration that gives 50% inhibition. Low readings indicate greater potency, high ones weaker potency.

Structures are written as SMILES.

One assay concerns the target T1, Human renin (Homo sapiens, UniProt P00797).
T1 construct: purchased National Institute for Biological Standards, London
T1 sequence (P00797 67-406): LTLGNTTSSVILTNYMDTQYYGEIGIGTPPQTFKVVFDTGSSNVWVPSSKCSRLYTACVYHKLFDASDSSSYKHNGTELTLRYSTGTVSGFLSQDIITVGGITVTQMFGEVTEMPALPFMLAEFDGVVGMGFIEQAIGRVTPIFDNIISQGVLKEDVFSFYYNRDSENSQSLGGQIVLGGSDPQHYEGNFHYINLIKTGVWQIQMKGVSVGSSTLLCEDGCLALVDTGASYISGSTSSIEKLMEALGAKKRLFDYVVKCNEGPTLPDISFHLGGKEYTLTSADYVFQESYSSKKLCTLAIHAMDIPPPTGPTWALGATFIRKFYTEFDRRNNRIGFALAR
In words: human renin inhibition test. Conditions: human plasma substrate, pH 7.4, two hours at 37° C., angiotensin I by radioimmunoassay. The assay is classed as biochemical. As for the experimental part:
The human renin inhibition test has been previously described in detail in papaioannou, et al. (1985) Clinical and Experimental Hypertension A7(9), 1243-1257. Human renin was obtained from the National Institute for Biological Standards, London. In a total volume of 0.25 mL 100 mM Tris-acetate buffer at pH 7.4, 25 x 10-6 Goldblatt units of renin, 0.05 mL of plasma from human volunteers taking oral contraceptives, 6.0 mM sodium EDTA, 2.4 mM phenylmethyl sulfonyl fluoride, 1.5 mM 8-hydroxyquinoline, 0.4 mg/mL BSA, and 0.024 mg/mL neomycin sulfate were incubated for two hours at 37° C. in the presence or absence of renin inhibitors. The produced angiotensin I was determined by radioimmunoassay (New England Nuclear kit). Compounds of Formula I to be assayed were solubilized in either ethyl alcohol or DMSO and diluted with 100 mM Tris-acetate buffer at pH 7.4 to the appropriate concentration. The final concentration of organic solvent in the reaction mixture was less than 1%. Control incubations at 37° C. were used to correct for effects of organic solvent on renin activity.

A further assay concerns Hog renin. Nature of the assay: hog renin inhibition assay. The format is biochemical. Conditions: synthetic tetradecapeptide substrate, pH 7.4, one hour at 37° C., angiotensin I by radioimmunoassay. Here is the method: The hog renin inhibition assay was performed in a manner similar to the human renin assay, with the following modifications. Hog renin was purchased from Sigma Chemical Co. and the synthetic tetradecapeptide substrate was obtained from Peninsula Labs Inc. In a final volume of 0.25 mL 100 mM Tris-acetate buffer at pH 7.4, 0.125m units hog renin, 20 micromolar tetradecapetide, 6 mM disodium EDTA, 3.2 mM phenylmethyl sulfonyl fluoride, 3 mM 8-hydroxyquinoline, 1.2 mg/mL BSA and 0.024 mg/mL neomycin sulfate were incubated for one hour at 37° C. in the presence or absence of renin inhibitors. The amount of angiotensin I produced was determined as for the human renin inhibition assay.

`CC(CNC(=O)[C@H](Cc1ccccc1)NC(=O)OC(C)(C)C)C(=O)N[C@@H](CC1CCCCC1)[C@@H](O)CO` (stereo partly drawn) [Example 8, Boc-L-phenylalaninyl-D,L-α-methyl-β-alaninamide of (2S,3R)-2-amino-1-cylohexyl-3,4-dihydroxybutane]: the IC50 against Human renin was found to be 2000 nM; in the assay on Hog renin it was 2100 nM.
On to `CC(C)C[C@H](O)[C@H](O)[C@H](CC1CCCCC1)NC(=O)C(C)CNC(=O)[C@H](Cc1ccccc1)NC(=O)OC(C)(C)C` (stereo partly drawn) [Example 9, Boc-L-phenylalaninyl-D,L-α-methyl-β-alaninamide of (2S,3R,4S)-2-amino-1-cyclohexyl-3,4-dihydroxy-6-methylheptane], for which the IC50 on Human renin is 210 nM; with Hog renin it was 12.5 nM.
